Test results taken from patent publication US20250296937A1, “CYCLIC BISBENZYL TETRAHYDROISOQUINOLINE COMPOUND, AND PREPARATION METHOD THEREFOR AND USE THEREOF” (Shanghai Institute of Materia Medica, Chinesse Academy of …, priority 2021, published 2025).
Entries after “also recorded” stand apart in the source; their conditions may differ.

Columns and labels:
hNav1.5 sodium channel = hNav1.5 sodium channel (Homo sapiens, UniProt Q14524)
Text: Nav1.5: CHL cells stably expressing hNav1.5 sodium channel was used to record hNav1.5 sodium channel currents by whole-cell membrane clamp technique at room temperature. The glass microelectrodes were made from glass electrode blanks (BF150-86-10, Sutter) by pulling through a puller, and the tip resistance was about 2-5 MΩ after filling the electrode with internal fluid, and the glass microelectrodes were connected to Axopatch 200B (Molecular Devices) membrane clamp amplifier by inserting the glass microelectrodes into the amplifier probe. Clamp voltage and data recording were controlled and recorded by pClamp 10 software via a computer with a sampling frequency of 10 kHz and a filtering frequency of 2 kHz. After obtaining whole-cell recordings, the cells were clamped at −80 mV, given a hyperpolarizing voltage of 200 ms to −120 mV, and then depolarized to −20 mV for 20 ms to evoke a Nav1.5 current. This voltage stimulus was given every 10 s; after the hNav1.5 sodium current was determined to be stabilized (for at least 1 min), begins the dosing process. Concentrations of the sample to be tested were administered continuously starting from low test concentration, and each test concentration was given for 1 min to reach steady state of action or for a maximum of 3 min. A minimum of 3 cells (n≥3) were tested at each concentration of the sample to be tested, and a minimum of 2 cells (n≥2) were tested at each concentration of the positive control.
Extracellular fluid formulation (mM): 140 NaCl, 5 KCl, 1 CaCl2, 1.25 MgCl2, 10 HEPES and 10 Glucose, adjusting the pH to 7.4 with NaOH.
Intracellular fluid formulation (mM): 130 CsF, 10 NaCl, 10 EGTA and 10 HEPES, adjusting the pH to 7.2 with CsOH.

[1] = test system: LPS-induced acute inflammation; experiment: In vivo LPS-induced acute inflammation in mice (Q-PCR of lung/spleen, serum Elisa); parameters: species or system C57BL/6 mice; conditions: 30 mg/kg orally 2 h after 3 mg/kg LPS i.p.; samples 4 h after administration
Procedure: In this example, the effects of compounds on LPS-induced acute inflammation model in vivo were analyzed by the expression levels of inflammatory factors; the mRNA expression levels of tissue inflammation-related indicators were detected by the method of real-time quantitative PCR (Q-PCR), and the levels of inflammatory factors in serum were detected by the method of Elisa. C57BL/6 mice were purchased from SLAC, and the Elisa kits were purchased from Novusbio, with item no. 890860 for IL-6 and item no. 266117 for TNF-α. […]
Construction of inflammation model in mice: C57BL/6 mice were randomly divided into three groups: one control group, five experimental animals; one LPS modeling group, with five experimental animals; and two treatment groups, with five experimental animals. […] The blood was collected from the orbit of mice in each group at 4 h after the administration of the drug, and the spleen and lung tissues were collected after the euthanasia. mRNA was extracted from lung and spleen tissues respectively, and real-time quantitative PCR was performed after reverse transcription to assess the mRNA expression level of inflammation-related indicators, and Elisa assay was performed after serum extraction to assess the secretion level of inflammatory factors.

Sequence of hNav1.5 sodium channel (Q14524 whole entry): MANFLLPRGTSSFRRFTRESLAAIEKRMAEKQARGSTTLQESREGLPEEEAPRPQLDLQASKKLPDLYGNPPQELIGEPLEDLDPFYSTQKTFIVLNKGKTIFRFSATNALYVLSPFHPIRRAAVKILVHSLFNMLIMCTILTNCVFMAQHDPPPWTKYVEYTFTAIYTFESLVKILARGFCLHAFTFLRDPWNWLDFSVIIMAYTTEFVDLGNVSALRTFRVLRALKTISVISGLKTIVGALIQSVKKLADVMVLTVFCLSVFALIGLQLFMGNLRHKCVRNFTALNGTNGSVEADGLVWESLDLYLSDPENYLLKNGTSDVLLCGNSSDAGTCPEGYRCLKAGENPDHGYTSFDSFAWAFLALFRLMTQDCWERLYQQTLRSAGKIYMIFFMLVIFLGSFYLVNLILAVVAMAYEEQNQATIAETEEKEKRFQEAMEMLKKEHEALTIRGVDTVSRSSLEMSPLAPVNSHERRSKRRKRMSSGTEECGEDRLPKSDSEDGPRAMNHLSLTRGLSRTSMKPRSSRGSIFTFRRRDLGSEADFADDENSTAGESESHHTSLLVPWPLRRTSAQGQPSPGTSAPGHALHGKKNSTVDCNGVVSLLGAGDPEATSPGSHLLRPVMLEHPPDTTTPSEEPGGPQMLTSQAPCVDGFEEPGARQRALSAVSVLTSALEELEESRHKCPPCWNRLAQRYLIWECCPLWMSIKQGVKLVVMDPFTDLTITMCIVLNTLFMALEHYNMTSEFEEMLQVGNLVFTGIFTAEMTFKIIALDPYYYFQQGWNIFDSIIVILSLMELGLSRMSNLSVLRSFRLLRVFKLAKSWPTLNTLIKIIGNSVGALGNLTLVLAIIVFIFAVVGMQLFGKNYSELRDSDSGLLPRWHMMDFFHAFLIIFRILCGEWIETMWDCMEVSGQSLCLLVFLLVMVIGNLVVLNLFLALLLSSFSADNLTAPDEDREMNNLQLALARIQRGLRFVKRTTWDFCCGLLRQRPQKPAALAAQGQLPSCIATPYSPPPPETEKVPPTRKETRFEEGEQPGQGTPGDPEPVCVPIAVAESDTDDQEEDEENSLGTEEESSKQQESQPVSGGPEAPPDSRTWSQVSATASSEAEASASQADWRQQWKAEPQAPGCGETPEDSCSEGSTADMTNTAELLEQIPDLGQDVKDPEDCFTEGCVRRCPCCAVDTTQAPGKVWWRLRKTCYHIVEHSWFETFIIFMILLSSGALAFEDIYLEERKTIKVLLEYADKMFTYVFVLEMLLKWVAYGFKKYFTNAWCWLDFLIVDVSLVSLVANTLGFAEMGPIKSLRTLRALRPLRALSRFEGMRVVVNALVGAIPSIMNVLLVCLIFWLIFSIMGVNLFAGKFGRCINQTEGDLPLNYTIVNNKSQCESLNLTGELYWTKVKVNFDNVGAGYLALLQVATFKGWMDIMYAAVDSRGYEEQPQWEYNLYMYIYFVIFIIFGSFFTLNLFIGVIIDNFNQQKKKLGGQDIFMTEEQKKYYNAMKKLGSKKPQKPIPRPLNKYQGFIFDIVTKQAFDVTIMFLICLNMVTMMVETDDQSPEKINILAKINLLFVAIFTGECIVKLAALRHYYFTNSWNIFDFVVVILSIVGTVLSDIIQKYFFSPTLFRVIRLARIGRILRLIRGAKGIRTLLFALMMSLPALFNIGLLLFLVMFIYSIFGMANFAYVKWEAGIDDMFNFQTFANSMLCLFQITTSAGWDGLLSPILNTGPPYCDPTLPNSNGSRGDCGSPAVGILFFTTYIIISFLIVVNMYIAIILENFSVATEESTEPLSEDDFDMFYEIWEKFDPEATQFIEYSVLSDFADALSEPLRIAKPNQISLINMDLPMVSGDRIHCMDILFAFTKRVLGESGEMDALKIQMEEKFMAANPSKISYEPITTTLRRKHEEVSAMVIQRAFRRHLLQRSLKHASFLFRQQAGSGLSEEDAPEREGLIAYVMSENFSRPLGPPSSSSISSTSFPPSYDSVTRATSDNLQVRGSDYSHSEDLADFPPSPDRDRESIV

In the case of `CCCCNC(=O)Oc1ccc2cc1Oc1ccc(cc1)C[C@H]1c3c(cc(OC)c(OC)c3Oc3cc4c(cc3OC)CCN(C)[C@@H]4C2)CCN1C` [Compound 2], the “activity against Nav1.5 channels” value (hNav1.5 sodium channel) is reported as “weakly active”.
In the case of `COc1cc2c3cc1Oc1c(OC)c(OC)cc4c1[C@H](Cc1ccc(cc1)Oc1cc(ccc1C(N)=O)C[C@H]3N(C)CC2)N(C)CC4` [Compound 4], the “inflammatory factors and chemokines, mRNA levels and cytokine secretion levels, LPS-induced acute inflammation in mice” value [1] is reported as “significantly inhibited; also recorded: significant decrease”.
